According to ChEMBL document CHEMBL4613209, “Quinolone hybrids and their anti-cancer activities: An overview” (Eur J Med Chem, 2019):
≈ marks a conversion by molar mass, not a printed value. Values belong to the molecule of their own block, whether it stands above or below them.

Key:
[1] = test system: SW1990; assay: Cytotoxicity against human SW1990 cells assessed as reduction in cell viability by MTT assay; format: functional, cell-based
[2] = test system: NCI/ADR-RES; assay: Cytotoxicity against human MCF7/ADR cells assessed as reduction in cell viability by MTT assay; format: functional, cell-based
[3] = test system: SMMC-7721; assay: Cytotoxicity against human SMMC7721 cells assessed as reduction in cell viability by MTT assay; format: functional, cell-based
[4] = test system: MCF7; assay: Cytotoxicity against human MCF7 cells assessed as reduction in cell viability by MTT assay; format: functional, cell-based
[5] = test system: HUVEC; assay: Cytotoxicity against human HUVEC cells assessed as reduction in cell viability by MTT assay; format: cell-based
[6] = test system: A549; assay: Anticancer activity against human A549 cells by MTT assay; format: functional, cell-based
[7] = test system: HepG2; assay: Anticancer activity against human HepG2 cells by MTT assay; format: functional, cell-based
[8] = test system: HL-60; assay: Anticancer activity against human HL60 cells by MTT assay; format: functional, cell-based
[9] = test system: HT-29; assay: Anticancer activity against human HT-29 cells by MTT assay; format: functional, cell-based
[10] = test system: HeLa; assay: Anticancer activity against human HeLa cells by MTT assay; format: functional, cell-based
[11] = test system: PC-3; assay: Cytotoxicity against human PC3 cells assessed as reduction in cell viability after 48 hrs by SRB assay; format: functional, cell-based; conditions: PC-3, 48 h
[12] = test system: DU-145; assay: Cytotoxicity against human DU145 cells assessed as reduction in cell viability after 48 hrs by SRB assay; format: functional, cell-based; conditions: DU-145, 48 h
[13] = test system: A549; assay: Anticancer activity against human A549 cells after 48 hrs by SRB assay; format: functional, cell-based; conditions: A549, 48 h
[14] = test system: HepG2; assay: Anticancer activity against human HepG2 cells after 48 hrs by SRB assay; format: functional, cell-based; conditions: HepG2, 48 h
[15] = test system: MCF7-DOX; assay: Anticancer activity against human MCF7/Dox cells after 48 hrs by SRB assay; format: functional, cell-based
[16] = test system: HeLa; assay: Anticancer activity against human HeLa cells after 48 hrs by SRB assay; format: functional, cell-based
[17] = test system: HCT-116; assay: Anticancer activity against human HCT116 cells after 48 hrs by SRB assay; format: functional, cell-based; conditions: HCT-116, 48 h
[18] = test system: MCF7; assay: Anticancer activity against human MCF7 cells after 48 hrs by SRB assay; format: functional, cell-based; conditions: MCF7, 48 h
[19] = test system: SK-OV-3; assay: Anticancer activity against human SKOV3 cells after 48 hrs by SRB assay; format: functional, cell-based; conditions: SK-OV-3, 48 h
[20] = Toxicity in mouse xenografted with human MB-9812 cells
[21] = test system: HL-60; assay: Anticancer activity against human HL60 cells after 48 hrs by SRB assay; format: functional, cell-based; conditions: HL-60, 48 h
[22] = test system: MCF7; assay: Cytotoxicity against human MCF7 cells assessed as reduction in cell viability after 72 hrs by MTT assay; format: functional, cell-based; conditions: MCF7, 72 h
[23] = test system: T47D; assay: Cytotoxicity against human T47D cells assessed as reduction in cell viability after 48 hrs by MTT assay; format: functional, cell-based
[24] = test system: DU-145; assay: Anticancer activity against human DU145 cells after 48 hrs by SRB assay; format: functional, cell-based; conditions: DU-145, 48 h
[25] = test system: MCF7; assay: Cytotoxicity against human MCF7 cells assessed as reduction in cell viability after 48 hrs by MTT assay; format: functional, cell-based; conditions: MCF7, 48 h
[26] = Toxicity in mouse xenografted with human CX-1 cells; conditions: in vivo
[27] = test system: MDA-MB-231; assay: Cytotoxicity against human MDA-MB-231 cells assessed as reduction in cell viability after 48 hrs by MTT assay; format: functional, cell-based; conditions: MDA-MB-231, 48 h
[28] = test system: PANC-1; assay: Anticancer activity against human PANC1 cells after 48 hrs by SRB assay; format: functional, cell-based; conditions: PANC-1, 48 h
[29] = test system: HCT-116; assay: Cytotoxicity against human HCT116 cells assessed as reduction in cell viability by SRB assay; format: functional, cell-based
[30] = test system: MCF7; assay: Cytotoxicity against human MCF7 cells assessed as reduction in cell viability by SRB assay; format: functional, cell-based
[31] = test system: HT-1080; assay: Cytotoxicity against human HT1080 cells assessed as reduction in cell viability; format: functional, cell-based
[32] = Cytotoxicity against human MGC832 cells assessed as reduction in cell viability after 48 hrs by MTT assay; format: functional, cell-based
[33] = test system: HeLa; assay: Cytotoxicity against human HeLa cells assessed as reduction in cell viability after 48 hrs by MTT assay; format: functional, cell-based
[34] = test system: HepG2; assay: Cytotoxicity against human HepG2 cells assessed as reduction in cell viability after 48 hrs by MTT assay; format: functional, cell-based; conditions: HepG2, 48 h
[35] = test system: SiHa; assay: Growth inhibition of human SiHa cells after 48 hrs by SRB assay; format: functional
[36] = test system: PANC-1; assay: Growth inhibition of human PANC1 cells after 48 hrs by SRB assay; format: functional; conditions: PANC-1, 48 h
[37] = test system: MDA-MB-231; assay: Growth inhibition of human MDA-MB-231 cells after 48 hrs by SRB assay; format: functional; conditions: MDA-MB-231, 48 h
[38] = test system: OVCAR-3; assay: Potency index, ratio of TD50 for doxorubicin to TD50 for test compound for cytotoxicity against human OVCAR3 cells assessed as reduction in cell viability; format: functional
[39] = Potency index, ratio of TD50 for doxorubicin to TD50 for test compound for cytotoxicity against human SW403 cells assessed as reduction in cell viability; format: functional
[40] = test system: MRC5; assay: Cytotoxicity against human MRC5 cells assessed as reduction in cell viability; format: functional; conditions: read-out: TD50 (the source's name)
[41] = Cytotoxicity against human WI38 cells assessed as reduction in cell viability; format: cell-based; conditions: WI-38 cells, read-out: TD50 (the source's name)
[42] = test system: L1210; assay: Potency index, ratio of TD50 for doxorubicin to TD50 for test compound for cytotoxicity against mouse L1210 cells assessed as reduction in cell viability; format: functional
[43] = test system: MCF7; assay: Potency index, ratio of TD50 for doxorubicin to TD50 for test compound for cytotoxicity against human MCF7 cells assessed as reduction in cell viability; format: functional
[44] = test system: KB; assay: Potency index, ratio of TD50 for doxorubicin to TD50 for test compound for cytotoxicity against human KB cells assessed as reduction in cell viability; format: functional
[45] = test system: CCRF S-180; assay: Antitumor activity against mouse S180 cells xenografted in mouse assessed as reduction in tumor weight at 10 mg/kg relative to control; format: functional; set-up: scale not given: the % may be the effect or the level left
[46] = test system: HCT-116; assay: Antiproliferative activity against human HCT116 cells after 48 hrs by MTT assay; format: functional, cell-based; conditions: HCT-116, 48 h
[47] = test system: HCT-8; assay: Antiproliferative activity against human HCT8 cells after 48 hrs by MTT assay; format: functional, cell-based; conditions: HCT-8, 48 h
[48] = test system: HeLa; assay: Antiproliferative activity against human HeLa cells after 48 hrs by MTT assay; format: functional, cell-based
[49] = test system: Hep 3B2; assay: Anticancer activity against human Hep3B cells after 48 to 72 hrs by MTT assay; format: functional, cell-based
[50] = test system: K562; assay: Anticancer activity against human K562 cells after 48 to 72 hrs by MTT assay; format: functional, cell-based

Structure (SMILES): COc1ccc2cc3[n+](cc2c1OCc1cn(Cc2cc(=O)[nH]c4ccccc24)nn1)-c1cc2c(cc1CC3)OCO2
IC50 [1]: 75.5 to 181 µM
IC50 [2]: 75.5 to 181 µM
IC50 [3]: 75.5 to 181 µM
IC50 [4]: 75.5 to 181 µM
IC50 [5]: 75.5 to 181 µM

IC50 [6]: 13.6 to 66 µM
IC50 [7]: 13.6 to 66 µM
IC50 [8]: 13.6 to 66 µM
IC50 [9]: 13.6 to 66 µM
IC50 [10]: 13.6 to 66 µM
Structure (SMILES): CCOC(=O)c1cn(Cc2cn(-c3ccc(F)cc3)nn2)c2ccc(Cl)cc2c1=O

Structure (SMILES): Cn1c(=O)cc(Cc2nnc3n2N=C(c2cc4ccccc4oc2=O)CS3)c2ccccc21
IC50 [11]: 43.3 µg/mL (≈ 95.1 µM)
IC50 [12]: 20.4 µg/mL (≈ 44.8 µM)

Structure (SMILES): COc1cc([C@@H]2c3cc4c(cc3[C@@H](O[C@@H]3O[C@@H]5CO[C@@H](C)O[C@H]5[C@H](O)[C@H]3O)[C@H]3COC(=O)[C@H]23)OCO4)cc(OC)c1O [ETOPOSIDE]
IC50 [13]: 2.91 to 50 µM
IC50 [14]: 2.91 to 50 µM
IC50 [15]: 2.91 to 50 µM
IC50 [16]: 2.91 to 50 µM
IC50 [17]: 2.91 to 50 µM
IC50 [18]: 2.91 to 50 µM
IC50 [19]: 2.91 to 50 µM
LD50 [20]: 64 mg/kg
IC50 [21]: 2.91 to 50 µM
IC50 [22]: 2.91 to 50 µM
IC50 [23]: 11.8 to 15.7 µM
IC50 [24]: 2.91 to 50 µM
IC50 [25]: 11.8 to 15.7 µM
LD50 [26]: 64 mg/kg
IC50 [27]: 11.8 to 15.7 µM
IC50 [28]: 2.91 to 50 µM

Structure (SMILES): N#Cc1c(N)c2cc(-c3nc4ccccc4s3)ccc2[nH]c1=O
IC50 [29]: 0.0616 µM
IC50 [30]: 0.0748 µM

Structure (SMILES): N#Cc1c(N)c2cc(-c3nc4ccccc4o3)ccc2[nH]c1=O
IC50 [29]: 0.0357 µM
IC50 [30]: 0.0267 µM

Structure (SMILES): Cc1cc2c(n1-c1ccccc1)CCc1cc(S(=O)(=O)c3ccccc3)c(O)nc1-2
IC50 [31]: 0.4 to 3.6 µM

Structure (SMILES): COC(=O)c1c(-c2ccc[nH]2)[nH]c2ccccc2c1=O
IC50 [32]: 0.013 µM
IC50 [33]: 0.11 µM

Structure (SMILES): O=C(O)c1c(-c2ccc[nH]2)[nH]c2ccccc2c1=O [PENICINOLINE]
IC50 [32]: 0.091 µM
IC50 [34]: 0.007 µM

GI50 [36]: 0.06 to 2 µM
GI50 [37]: 0.06 to 2 µM
Structure (SMILES): CCn1cc(C(=O)O)c(=O)c2cnc(N3CCN(C(=O)CCSc4nnnn4-c4cc(OC)c(OC)c(OC)c4)CC3)nc21
GI50 [35]: 0.06 to 2 µM

Structure (SMILES): Cc1cn(-c2ccc(CCCCCCCCCCn3ccc(=O)c4c(N)cccc43)cc2)nn1
Ratio [38]: >=4.6
Ratio [39]: >=4.6
CC50 [40]: 0.033 µg/mL (≈ 0.0721 µM)
CC50 [41]: 7.45 µg/mL (≈ 16.3 µM)
Ratio [42]: >=4.6
Ratio [43]: >=4.6
Ratio [44]: >=4.6
Activity [45]: 13.1%

IC50 [46]: 2.2 µM
IC50 [47]: 5.6 µM
IC50 [48]: 2.4 µM
Structure (SMILES): COc1ccc(C2CC(c3c(-c4ccccc4)c4ccccc4[nH]c3=O)=NN2c2ccccc2)cc1 (stereo not drawn)

IC50 [50]: < 20 µg/mL
Structure (SMILES): O=c1c(/C(CCN2CCOCC2)=N/Nc2ccccc2)c(O)c2ccccc2n1-c1ccccc1
IC50 [49]: < 20 µg/mL
